Laboratory results from ChEMBL document CHEMBL1201862, “PubChem BioAssay data set” (2004).
Activity calls are given as the source filed them.

Tests used:
cells [1] = assay type: functional, cell-based; details: HEK-CNG
Galanin receptor type 3 = molecular target: T1, Galanin receptor type 3 (Homo sapiens, UniProt O60755); assay: Fluorescence-based cell-based primary high throughput dose response assay to identify antagonists of the Galanin Receptor 3 (GalR3).; assay type: functional
T1 sequence (O60755 whole entry): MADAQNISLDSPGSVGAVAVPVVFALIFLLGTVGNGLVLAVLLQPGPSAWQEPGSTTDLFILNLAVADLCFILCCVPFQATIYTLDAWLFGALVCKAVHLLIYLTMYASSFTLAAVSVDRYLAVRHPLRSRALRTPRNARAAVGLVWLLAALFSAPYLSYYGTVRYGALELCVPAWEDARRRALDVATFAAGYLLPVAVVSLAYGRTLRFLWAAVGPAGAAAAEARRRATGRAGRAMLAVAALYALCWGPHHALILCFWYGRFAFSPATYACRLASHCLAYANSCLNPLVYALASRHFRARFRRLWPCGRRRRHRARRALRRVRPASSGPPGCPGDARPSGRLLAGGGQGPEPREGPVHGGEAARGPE

Paired box protein Pax-8 = Paired box protein Pax-8 (Homo sapiens, UniProt Q06710); assay: inhibitors of PAX8-driven TPO luciferase reporter, dose response, RMG-I cells, cherry-pick (AID 687027); assay type: functional, cell-based;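 further: luciferase reporter driven by Pax8 target thyroperoxidase promoter measured by SteadyGlo luminescence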
[2] = IGROV1 ovarian cancer cell cytotoxicity, dose response, PAX8 inhibitor project, plate reader, dry powder samples (AID 743043); assay type: functional, cell-based; details: IGROV-1
[3] = A cytotoxicity screen of small molecule inhibitors of the PhoP region in Salmonella typhi identified in the primary screen. [Related pubchem assays: 1850, 1864, 1985 ]; assay type: functional
[4] = ADAM10 inhibitors, peptide cleavage, dose response, biochemical, QFRET (AID 743254);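 further: ADAM10 enzyme with the DM2 quenched FRET peptide as substrate; EDANS fluorescence gain as the protease cuts the substrate; inhibitor potency against ADAM10 proteolytic activity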
[5] = molecular target: Disintegrin and metalloproteinase domain-containing protein 17 (Homo sapiens, UniProt P78536); assay: ADAM17 protease inhibitors, dose response, counter-screen for ADAM10 exosite inhibitor project, biochemical, quenched FRET substrate (AID 743253)
Estrogen receptor beta = Estrogen receptor beta (Homo sapiens, UniProt Q92731);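 further: recombinant ER-beta bound to coactivator SRC1 peptide in presence of estradiol agonist; inhibitors block coactivator peptide binding and lower the FRET signal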
[6] = inhibitors of Vif binding to APOBEC3G peptide, primary screen, biochemical, TR-FRET, GST-Vif 1-94, biotin-A3G peptide, dose response retest (AID 1117319); assay type: functional;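 further: TR-FRET signal of purified GST-Vif binding a biotinylated A3G peptide; inhibitors lower the FRET signal by blocking Vif and A3G binding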
cells [7] = assay: cells
[8] = cytotoxicity toward NIH3T3 fibroblasts, dose response, counter-screen, cell-based, ATP luminescence, mouse fibroblasts (AID 2010); assay type: functional;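 further: cells exposed to compound for about 90 hours before reading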
[9] = inhibitors of intracellular T. cruzi replication, confirmation, NIH3T3 host cells, beta-gal luminescence (AID 2044); assay type: functional, cell-based;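 further: intracellular parasites grown in NIH/3T3 mouse fibroblasts as host cells; luminescent beta-galactosidase reporter signal from transgenic T. cruzi replicating inside host cells; inhibitors lower the luminescence signal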
[10] = molecular target: T2, DNA repair protein RAD52 homolog (Homo sapiens, UniProt P43351); assay type: functional, biochemical
T2 sequence (P43351 whole entry): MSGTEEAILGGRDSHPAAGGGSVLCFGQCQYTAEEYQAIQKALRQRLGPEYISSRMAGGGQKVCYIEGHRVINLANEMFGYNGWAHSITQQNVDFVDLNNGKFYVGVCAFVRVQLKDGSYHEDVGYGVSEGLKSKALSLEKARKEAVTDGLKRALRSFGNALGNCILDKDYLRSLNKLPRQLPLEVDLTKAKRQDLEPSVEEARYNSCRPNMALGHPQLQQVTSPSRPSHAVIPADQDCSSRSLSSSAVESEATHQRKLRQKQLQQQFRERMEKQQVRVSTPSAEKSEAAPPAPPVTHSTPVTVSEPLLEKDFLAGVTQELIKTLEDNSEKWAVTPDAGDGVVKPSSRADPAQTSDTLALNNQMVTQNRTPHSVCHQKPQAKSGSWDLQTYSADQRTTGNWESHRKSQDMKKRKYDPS

[11] = molecular target: T3, Oxysterols receptor LXR-beta (Homo sapiens, UniProt P55055); assay: LXR agonists, Gal4 luciferase reporter, dose response, counter-screen for ssDAF-12 agonist project, cell-based, luminescence, HEK293, S. stercoralis campaign (AID 720737); assay type: functional; details: read-out: IC50 (the source's name)
T3 sequence (P55055 whole entry): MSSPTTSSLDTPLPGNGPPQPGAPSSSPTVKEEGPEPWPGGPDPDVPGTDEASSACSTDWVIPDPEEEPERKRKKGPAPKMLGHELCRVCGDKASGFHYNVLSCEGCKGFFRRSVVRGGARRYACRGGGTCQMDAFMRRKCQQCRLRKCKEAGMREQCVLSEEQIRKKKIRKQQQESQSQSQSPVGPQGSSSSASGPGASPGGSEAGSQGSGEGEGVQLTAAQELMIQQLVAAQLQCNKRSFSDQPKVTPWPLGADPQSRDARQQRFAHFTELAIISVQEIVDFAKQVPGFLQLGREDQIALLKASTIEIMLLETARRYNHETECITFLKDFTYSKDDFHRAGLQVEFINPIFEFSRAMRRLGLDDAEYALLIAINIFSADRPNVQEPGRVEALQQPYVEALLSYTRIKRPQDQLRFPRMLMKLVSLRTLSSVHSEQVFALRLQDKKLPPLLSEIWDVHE

[12] = Luminescence-based cell-based high throughput dose response assay to identify activators of the DAF-12 from the parasite S. stercoralis (ssDAF-12).; assay type: functional
Estrogen receptor = molecular target: T4, Estrogen receptor (Homo sapiens, UniProt P03372);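 further: potency for inhibiting coactivator peptide recruitment to the receptor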
T4 sequence (P03372 whole entry): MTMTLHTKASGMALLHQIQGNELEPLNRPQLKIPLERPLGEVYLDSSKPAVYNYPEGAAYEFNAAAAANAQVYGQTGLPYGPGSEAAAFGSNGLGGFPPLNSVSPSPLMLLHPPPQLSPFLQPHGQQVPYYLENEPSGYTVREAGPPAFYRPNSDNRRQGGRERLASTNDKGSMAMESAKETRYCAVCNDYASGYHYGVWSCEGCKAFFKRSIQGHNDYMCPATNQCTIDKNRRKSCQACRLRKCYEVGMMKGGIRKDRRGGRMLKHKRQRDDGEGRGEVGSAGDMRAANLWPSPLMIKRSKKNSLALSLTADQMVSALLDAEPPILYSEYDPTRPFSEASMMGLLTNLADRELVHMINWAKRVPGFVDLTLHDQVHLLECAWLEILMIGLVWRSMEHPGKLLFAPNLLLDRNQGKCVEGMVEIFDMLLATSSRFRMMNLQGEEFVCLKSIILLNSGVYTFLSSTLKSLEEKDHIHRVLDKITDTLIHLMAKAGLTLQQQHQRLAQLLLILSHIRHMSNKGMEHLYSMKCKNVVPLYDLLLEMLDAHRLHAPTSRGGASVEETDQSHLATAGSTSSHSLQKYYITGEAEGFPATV

Estrogen receptor beta, sequence (Q92731 whole entry): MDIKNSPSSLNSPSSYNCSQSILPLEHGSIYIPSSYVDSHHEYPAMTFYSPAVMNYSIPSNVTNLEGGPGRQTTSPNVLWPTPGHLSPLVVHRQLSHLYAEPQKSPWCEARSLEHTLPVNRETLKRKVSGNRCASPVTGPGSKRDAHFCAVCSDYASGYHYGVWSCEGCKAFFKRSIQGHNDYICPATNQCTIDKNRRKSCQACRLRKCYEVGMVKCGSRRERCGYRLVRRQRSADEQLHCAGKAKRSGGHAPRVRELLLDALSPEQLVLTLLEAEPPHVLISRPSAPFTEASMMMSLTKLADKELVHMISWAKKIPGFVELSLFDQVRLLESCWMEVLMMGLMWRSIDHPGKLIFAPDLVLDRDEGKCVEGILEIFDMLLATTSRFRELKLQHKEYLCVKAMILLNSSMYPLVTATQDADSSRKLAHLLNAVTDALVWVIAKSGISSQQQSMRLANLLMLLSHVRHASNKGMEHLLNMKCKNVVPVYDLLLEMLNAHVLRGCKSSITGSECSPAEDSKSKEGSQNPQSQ
Disintegrin and metalloproteinase domain-containing protein 17, sequence (P78536 whole entry, the tested form may be a part): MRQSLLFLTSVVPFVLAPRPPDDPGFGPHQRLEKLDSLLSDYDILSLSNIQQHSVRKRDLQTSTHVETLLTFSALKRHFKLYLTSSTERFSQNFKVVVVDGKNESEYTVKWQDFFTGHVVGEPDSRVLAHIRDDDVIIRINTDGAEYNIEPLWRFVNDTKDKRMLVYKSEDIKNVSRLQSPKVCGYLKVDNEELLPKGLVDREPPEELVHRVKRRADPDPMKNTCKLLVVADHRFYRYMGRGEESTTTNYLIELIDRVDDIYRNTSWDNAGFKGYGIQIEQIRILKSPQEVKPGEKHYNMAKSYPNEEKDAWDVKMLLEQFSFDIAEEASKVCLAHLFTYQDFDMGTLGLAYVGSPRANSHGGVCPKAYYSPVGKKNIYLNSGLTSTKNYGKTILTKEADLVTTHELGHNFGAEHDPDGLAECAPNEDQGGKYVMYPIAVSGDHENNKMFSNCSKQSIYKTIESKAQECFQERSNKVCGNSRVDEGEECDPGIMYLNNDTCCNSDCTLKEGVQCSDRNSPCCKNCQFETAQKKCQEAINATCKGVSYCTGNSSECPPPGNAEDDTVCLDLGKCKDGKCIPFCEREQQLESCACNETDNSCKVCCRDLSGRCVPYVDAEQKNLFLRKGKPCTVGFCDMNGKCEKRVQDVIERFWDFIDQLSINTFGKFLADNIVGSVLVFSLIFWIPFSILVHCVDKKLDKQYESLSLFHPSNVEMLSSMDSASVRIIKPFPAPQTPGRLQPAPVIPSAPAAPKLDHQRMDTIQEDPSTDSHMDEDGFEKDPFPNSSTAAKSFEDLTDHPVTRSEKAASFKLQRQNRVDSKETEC
Paired box protein Pax-8, sequence (Q06710 whole entry): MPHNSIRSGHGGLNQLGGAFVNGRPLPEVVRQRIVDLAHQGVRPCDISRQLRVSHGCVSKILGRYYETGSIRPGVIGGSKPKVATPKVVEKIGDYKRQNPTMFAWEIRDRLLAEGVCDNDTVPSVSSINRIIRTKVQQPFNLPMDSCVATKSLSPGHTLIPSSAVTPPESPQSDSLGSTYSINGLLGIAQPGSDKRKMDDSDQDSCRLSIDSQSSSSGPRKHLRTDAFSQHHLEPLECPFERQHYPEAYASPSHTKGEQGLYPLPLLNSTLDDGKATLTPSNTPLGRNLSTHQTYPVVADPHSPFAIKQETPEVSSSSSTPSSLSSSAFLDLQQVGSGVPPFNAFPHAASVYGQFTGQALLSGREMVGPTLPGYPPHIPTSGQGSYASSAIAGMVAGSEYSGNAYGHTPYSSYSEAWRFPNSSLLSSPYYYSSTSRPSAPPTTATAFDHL

In the case of `COCCn1c(C)cc(C(=O)COc2nc3ccccc3nc2C)c1C`, the EC50 (cells [1]) is reported as > 29.9 µM (inactive) and the IC50 (Galanin receptor type 3) is reported as 3.67 µM (active).
In the case of `C[C@@H]1CCCCO[C@@H](CN(C)Cc2ccc(C(F)(F)F)cc2)[C@H](C)CN([C@H](C)CO)C(=O)c2cc(NC(=O)c3ccccc3)ccc2O1`, the AC50 (Paired box protein Pax-8) is reported as 9.55 µM (active) and the AC50 [2] is reported as 40.9 µM (active).
With `CCCNC(=O)C1CCN(c2ccc(S(=O)(=O)N3CCOCC3)cc2Cl)CC1` the EC50 [3] was > 50 µM (active).
With `COc1ccc(NC(=O)c2ccc(-c3ccccc3)cc2)cc1NS(=O)(=O)c1ccc(F)cc1` the IC50 [4] was > 69.5 µM (inactive) and the IC50 [5] was > 69.5 µM (inactive).
For `CCN(CC)CCNC(=O)c1cc(Cl)c(N)cc1OC`, the IC50 (Estrogen receptor beta) was > 50 µM (not active).
In the case of `COc1ccc(Cl)cc1N(CC(=O)Nc1ccc2c(c1)OCO2)S(C)(=O)=O`, the IC50 [6] is reported as > 100 µM (active).
With `C[C@]12CCC(O)CC1=CCC1C2CC[C@]2(C)/C(=N\NC(N)=S)CCC12` (stereo partly specified) the EC50 (cells [7]) was 0.103 µM (active), the EC50 [8] was > 60 µM (not active) and the EC50 [9] was < 0.1 µM (active).
In the case of `O=C(Nc1nc(-c2ccc(Cl)cc2Cl)cs1)c1ccc(OCC2CCCO2)cc1` (stereo unspecified), the EC50 (cells [1]) is reported as > 29.9 µM (inactive) and the IC50 (Galanin receptor type 3) is reported as 1.07 µM (active).
For `CCN1CCc2nc(N)sc2C1`, the AC50 [10] was 23.4 µM (active).
With `CC1CCN(C(=O)COc2ccc(Nc3ccccc3)cc2)CC1` the EC50 [3] was > 50 µM (active).
For `CCN(CC)CCCNC(=O)c1c(O)nc2c(c1O)CCCC2`, the EC50 [3] was > 50 µM (active).
For `COCCCNc1nc2c(-c3ccc(C)cc3)nnn2c2ccccc12`, the EC50 [11] was > 67.5 µM (inactive) and the IC50 [12] was > 67.5 µM (inactive).
For `COCCOC(=O)c1[nH]c2c(c1C)C(=O)CC(c1ccco1)C2` (stereo unspecified), the IC50 (Estrogen receptor) was 19.5 µM (active).
With `Nc1[nH]n(-c2ccccc2)c(=O)c1/N=N/c1ccccc1[N+](=O)[O-]` the IC50 (Estrogen receptor beta) was > 50 µM (not active).
